Experimental data reported in patent publication US20020026053A1, “Novel 3-(substituted) -2- indolinones compounds and use thereof as inhibitors of protein kinase activity” (priority 1997, published 2002).

Target: T1, Met receptor (EGFR/Met chimeric cells, EMR) (Homo sapiens, UniProt P08581)
T1 construct: expressed in transfected cells; the other entry of the earlier key: EGFR (P00533, Epidermal growth factor receptor)
Assay: Met Autophosphorylation Assay
Type: biochemical
In short: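 Met phosphorylation was measured by capture ELISA. Lysates (90 μg/100 μl, HNTG plus 1 mM PMSF) from transiently transfected EGFR/Met chimera (EMR) cells were bound for 60 min at room temperature to wells holding rabbit anti-Met (C-28) on goat anti-rabbit coat. Phosphotyrosine was the read-out.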

T1 sequence (P08581 with tags, fused parts or gaps): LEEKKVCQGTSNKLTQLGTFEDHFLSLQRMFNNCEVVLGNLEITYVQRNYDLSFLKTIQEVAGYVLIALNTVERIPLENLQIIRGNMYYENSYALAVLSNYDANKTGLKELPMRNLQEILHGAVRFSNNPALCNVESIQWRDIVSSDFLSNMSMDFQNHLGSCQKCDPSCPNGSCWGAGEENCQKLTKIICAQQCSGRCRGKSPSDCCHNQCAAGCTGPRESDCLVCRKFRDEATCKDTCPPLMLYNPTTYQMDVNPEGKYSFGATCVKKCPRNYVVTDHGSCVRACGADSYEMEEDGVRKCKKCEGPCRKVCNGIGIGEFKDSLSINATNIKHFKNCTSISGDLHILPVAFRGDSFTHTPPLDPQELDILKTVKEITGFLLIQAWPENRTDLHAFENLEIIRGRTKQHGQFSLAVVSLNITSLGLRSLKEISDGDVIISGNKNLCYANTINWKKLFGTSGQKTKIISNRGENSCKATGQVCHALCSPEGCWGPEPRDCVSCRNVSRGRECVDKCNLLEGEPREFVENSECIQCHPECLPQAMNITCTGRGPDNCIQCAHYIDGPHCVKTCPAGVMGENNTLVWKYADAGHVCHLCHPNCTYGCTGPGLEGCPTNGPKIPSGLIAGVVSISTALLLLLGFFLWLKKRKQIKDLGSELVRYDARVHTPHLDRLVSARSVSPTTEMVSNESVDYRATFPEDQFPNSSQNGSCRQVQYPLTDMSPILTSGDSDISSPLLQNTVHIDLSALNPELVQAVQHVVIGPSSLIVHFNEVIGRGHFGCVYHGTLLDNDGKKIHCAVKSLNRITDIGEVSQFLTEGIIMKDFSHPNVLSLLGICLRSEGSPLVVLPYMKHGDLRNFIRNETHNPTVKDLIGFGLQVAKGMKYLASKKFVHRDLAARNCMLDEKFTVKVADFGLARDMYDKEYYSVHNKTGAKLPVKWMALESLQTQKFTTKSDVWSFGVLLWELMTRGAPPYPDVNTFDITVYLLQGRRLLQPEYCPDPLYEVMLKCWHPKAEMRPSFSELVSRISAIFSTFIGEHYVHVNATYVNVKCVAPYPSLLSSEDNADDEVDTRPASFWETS

Compound	Met Kinase % Inhibition (P.130)
Cc1c(O)ccc(C=C2C(=O)Nc3c(Br)cc(Br)c(C)c32)c1O [10718/H09]	73.6%
Cc1c(Br)cc(Br)c2c1C(=Cc1ccco1)C(=O)N2 [10718/H10]	19.9%
Cc1c(Br)cc(Br)c2c1C(=Cc1ccc([N+](=O)[O-])o1)C(=O)N2 [10718/H11]	44.9%
CCOc1ccc(C=C2C(=O)Nc3c(Br)cc(Br)c(C)c32)cc1OC [10719/H02]	36.9%
Cc1c(Br)cc(Br)c2c1C(=Cc1ccc(O)c(O)c1)C(=O)N2 [10719/H03]	67.0%
COc1ccc(C=C2C(=O)Nc3c(Br)cc(Br)c(C)c32)c(OC)c1 [10719/H04]	0.7%
CCc1c(C)[nH]c(C=C2C(=O)Nc3c(Br)cc(Br)c(C)c32)c1C [10719/H05]	20.9%
COc1cc(OC)c(C=C2C(=O)Nc3c(Br)cc(Br)c(C)c32)c(OC)c1 [10719/H06]	1.3%
CCN(CC)c1ccc(C=C2C(=O)Nc3c(Br)cc(Br)c(C)c32)c(O)c1 [10734/H05]	51.1%
Cc1c(Br)cc(Br)c2c1C(=Cc1ccc([N+](=O)[O-])cc1)C(=O)N2 [10734/H06]	32.7%
Cc1c(Br)cc(Br)c2c1C(=Cc1cc(Br)cc(Br)c1O)C(=O)N2 [10734/H07]	84.9%
Cc1c(Br)cc(Br)c2c1C(=Cc1cccc(F)c1O)C(=O)N2 [10734/H08]	64.8%
Cc1c(Br)cc(Br)c2c1C(=Cc1ccc(O)c(Br)c1)C(=O)N2 [10734/H09]	78.4%
Cc1c(Br)cc(Br)c2c1C(=Cc1ccc(C(C)(C)C)cc1)C(=O)N2 [10734/H10]	23.5%
Cc1c(Br)cc(Br)c2c1C(=Cc1ccc(Br)s1)C(=O)N2 [10734/H11]	28.7%
Cc1ccccc1C=C1C(=O)Nc2c(Br)cc(Br)cc21 [10735/A02]	26.9%
O=C1Nc2c(Br)cc(Br)cc2C1=Cc1ccc(F)c(F)c1 [10735/A03]	53.0%
O=C1Nc2c(Br)cc(Br)cc2C1=Cc1cc(F)cc(F)c1 [10735/A04]	48.0%
O=C1Nc2c(Br)cc(Br)cc2C1=Cc1cccc(C(F)(F)F)c1 [10735/A05]	46.1%
O=C1Nc2c(Br)cc(Br)cc2C1=Cc1cc(C(F)(F)F)cc(C(F)(F)F)c1 [10735/A06]	58.9%
N#Cc1ccccc1C=C1C(=O)Nc2c(Br)cc(Br)cc21 [10735/A07]	61.9%
O=C1Nc2c(Br)cc(Br)cc2C1=Cc1c(F)cccc1F [10735/A08]	50.8%
O=C1Nc2c(Br)cc(Br)cc2C1=Cc1cccc2ccccc12 [10735/A09]	19.2%
O=C1Nc2c(Br)cc(Br)cc2C1=Cc1ccc(Cl)cc1Cl [10735/A10]	41.4%
O=C1Nc2c(Br)cc(Br)cc2C1=Cc1ccc(-c2ccccc2)cc1 [10735/A11]	24.5%
Cc1ccccc1C=C1C(=O)Nc2ccc(I)cc21 [10735/B02]	72.4%

Compound	Met Kinase % Inhibition (P.130)
O=C1Nc2ccc(I)cc2C1=Cc1ccc(F)c(F)c1 [10735/B03]	73.3%
O=C1Nc2ccc(I)cc2C1=Cc1cc(F)cc(F)c1 [10735/B04]	79.0%
O=C1Nc2ccc(I)cc2C1=Cc1cccc(C(F)(F)F)c1 [10735/B05]	83.7%
O=C1Nc2ccc(I)cc2C1=Cc1cc(C(F)(F)F)cc(C(F)(F)F)c1 [10735/B06]	82.7%
N#Cc1ccccc1C=C1C(=O)Nc2ccc(I)cc21 [10735/B07]	56.0%
O=C1Nc2ccc(I)cc2C1=Cc1c(F)cccc1F [10735/B08]	53.4%
O=C1Nc2ccc(I)cc2C1=Cc1cccc2ccccc12 [10735/B09]	46.8%
O=C1Nc2ccc(I)cc2C1=Cc1ccc(Cl)cc1Cl [10735/B10]	73.3%
O=C1Nc2ccc(I)cc2C1=Cc1ccc(-c2ccccc2)cc1 [10735/B11]	69.0%
Cc1ccccc1C=C1C(=O)Nc2ccc(Br)c(C)c21 [10735/C02]	27.7%
Cc1c(Br)ccc2c1C(=Cc1ccc(F)c(F)c1)C(=O)N2 [10735/C03]	66.2%
Cc1c(Br)ccc2c1C(=Cc1cc(F)cc(F)c1)C(=O)N2 [10735/C04]	75.8%
Cc1c(Br)ccc2c1C(=Cc1cccc(C(F)(F)F)c1)C(=O)N2 [10735/C05]	59.4%
Cc1c(Br)ccc2c1C(=Cc1cc(C(F)(F)F)cc(C(F)(F)F)c1)C(=O)N2 [10735/C06]	47.0%
Cc1c(Br)ccc2c1C(=Cc1ccccc1C#N)C(=O)N2 [10735/C07]	49.1%
Cc1c(Br)ccc2c1C(=Cc1c(F)cccc1F)C(=O)N2 [10735/C08]	49.8%
Cc1c(Br)ccc2c1C(=Cc1cccc3ccccc13)C(=O)N2 [10735/C09]	24.1%
Cc1c(Br)ccc2c1C(=Cc1ccc(Cl)cc1Cl)C(=O)N2 [10735/C10]	37.8%
Cc1c(Br)ccc2c1C(=Cc1ccc(-c3ccccc3)cc1)C(=O)N2 [10735/C11]	14.1%
CNS(=O)(=O)c1ccc2c(c1)C(=Cc1ccccc1C)C(=O)N2 [10735/D02]	32.6%
CNS(=O)(=O)c1ccc2c(c1)C(=Cc1ccc(F)c(F)c1)C(=O)N2 [10735/D03]	41.2%
CNS(=O)(=O)c1ccc2c(c1)C(=Cc1cc(F)cc(F)c1)C(=O)N2 [10735/D04]	25.6%
CNS(=O)(=O)c1ccc2c(c1)C(=Cc1cccc(C(F)(F)F)c1)C(=O)N2 [10735/D05]	33.7%
CNS(=O)(=O)c1ccc2c(c1)C(=Cc1cc(C(F)(F)F)cc(C(F)(F)F)c1)C(=O)N2 [10735/D06]	36.9%
CNS(=O)(=O)c1ccc2c(c1)C(=Cc1ccccc1C#N)C(=O)N2 [10735/D07]	33.7%
CNS(=O)(=O)c1ccc2c(c1)C(=Cc1c(F)cccc1F)C(=O)N2 [10735/D08]	25.6%

Compound	Met Kinase % Inhibition (P.130)
CNS(=O)(=O)c1ccc2c(c1)C(=Cc1cccc3ccccc13)C(=O)N2 [10735/D09]	23.0%
CNS(=O)(=O)c1ccc2c(c1)C(=Cc1ccc(Cl)cc1Cl)C(=O)N2 [10735/D10]	35.0%
CNS(=O)(=O)c1ccc2c(c1)C(=Cc1ccc(-c3ccccc3)cc1)C(=O)N2 [10735/D11]	18.5%
Cc1ccccc1C=C1C(=O)Nc2ccc(S(=O)(=O)Nc3ccc(C(F)(F)F)cc3)cc21 [10735/E02]	13.2%
O=C1Nc2ccc(S(=O)(=O)Nc3ccc(C(F)(F)F)cc3)cc2C1=Cc1ccc(F)c(F)c1 [10735/E03]	71.8%
O=C1Nc2ccc(S(=O)(=O)Nc3ccc(C(F)(F)F)cc3)cc2C1=Cc1cc(F)cc(F)c1 [10735/E04]	85.2%
O=C1Nc2ccc(S(=O)(=O)Nc3ccc(C(F)(F)F)cc3)cc2C1=Cc1cccc(C(F)(F)F)c1 [10735/E05]	74.8%
O=C1Nc2ccc(S(=O)(=O)Nc3ccc(C(F)(F)F)cc3)cc2C1=Cc1cc(C(F)(F)F)cc(C(F)(F)F)c1 [10735/E06]	33.3%
N#Cc1ccccc1C=C1C(=O)Nc2ccc(S(=O)(=O)Nc3ccc(C(F)(F)F)cc3)cc21 [10735/E07]	64.5%
O=C1Nc2ccc(S(=O)(=O)Nc3ccc(C(F)(F)F)cc3)cc2C1=Cc1c(F)cccc1F [10735/E08]	35.7%
O=C1Nc2ccc(S(=O)(=O)Nc3ccc(C(F)(F)F)cc3)cc2C1=Cc1cccc2ccccc12 [10735/E09]	11.3%
O=C1Nc2ccc(S(=O)(=O)Nc3ccc(C(F)(F)F)cc3)cc2C1=Cc1ccc(Cl)cc1Cl [10735/E10]	41.8%
O=C1Nc2ccc(S(=O)(=O)Nc3ccc(C(F)(F)F)cc3)cc2C1=Cc1ccc(-c2ccccc2)cc1 [10735/E11]	7.2%
Cc1ccccc1C=C1C(=O)Nc2ccc(S(=O)(=O)N3CCOCC3)cc21 [10735/F02]	31.2%
O=C1Nc2ccc(S(=O)(=O)N3CCOCC3)cc2C1=Cc1ccc(F)c(F)c1 [10735/F03]	36.1%
O=C1Nc2ccc(S(=O)(=O)N3CCOCC3)cc2C1=Cc1cc(F)cc(F)c1 [10735/F04]	41.6%
O=C1Nc2ccc(S(=O)(=O)N3CCOCC3)cc2C1=Cc1cccc(C(F)(F)F)c1 [10735/F05]	26.4%
O=C1Nc2ccc(S(=O)(=O)N3CCOCC3)cc2C1=Cc1cc(C(F)(F)F)cc(C(F)(F)F)c1 [10735/F06]	39.5%
N#Cc1ccccc1C=C1C(=O)Nc2ccc(S(=O)(=O)N3CCOCC3)cc21 [10735/F07]	39.7%
O=C1Nc2ccc(S(=O)(=O)N3CCOCC3)cc2C1=Cc1c(F)cccc1F [10735/F08]	18.5%
O=C1Nc2ccc(S(=O)(=O)N3CCOCC3)cc2C1=Cc1cccc2ccccc12 [10735/F09]	7.0%
O=C1Nc2ccc(S(=O)(=O)N3CCOCC3)cc2C1=Cc1ccc(Cl)cc1Cl [10735/F10]	13.0%
O=C1Nc2ccc(S(=O)(=O)N3CCOCC3)cc2C1=Cc1ccc(-c2ccccc2)cc1 [10735/F11]	16.6%
Cc1ccccc1C=C1C(=O)Nc2ccc(CCCl)cc21 [10735/G02]	26.0%
O=C1Nc2ccc(CCCl)cc2C1=Cc1ccc(F)c(F)c1 [10735/G03]	24.3%
O=C1Nc2ccc(CCCl)cc2C1=Cc1cc(F)cc(F)c1 [10735/G04]	28.8%
